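GI50 is the concentration that inhibits growth by half. TGI denotes the concentration required for complete inhibition of growth.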
Key:
Assay in all cases: inhibition of tumour cell growth, NCI panel, 384-well format
786-0 renal = tested on: 786-0 renal
A498 renal = tested on: A498 renal
A549 NSCLC = tested on: A549 NSCLC
ACHN renal = tested on: ACHN renal
BT-549 breast = tested on: BT-549 breast
CAKI-1 renal = tested on: CAKI-1 renal
COLO 205 colon = tested on: COLO 205 colon
DU-145 prostate = tested on: DU-145 prostate
EKVX NSCLC = tested on: EKVX NSCLC
HCC-2998 colon = tested on: HCC-2998 colon
HCT-116 colon = tested on: HCT-116 colon
HCT-15 colon = tested on: HCT-15 colon
HL-60(TB) leukemia = tested on: HL-60(TB) leukemia
HOP-62 NSCLC = tested on: HOP-62 NSCLC
HOP-92 NSCLC = tested on: HOP-92 NSCLC
HS 578T breast = tested on: HS 578T breast
HT29 colon = tested on: HT29 colon
IGROV1 ovarian = tested on: IGROV1 ovarian
KM12 colon = tested on: KM12 colon
LOX IMVI melanoma = tested on: LOX IMVI melanoma
M14 melanoma = tested on: M14 melanoma
MALME-3M melanoma = tested on: MALME-3M melanoma
MCF7 breast = tested on: MCF7 breast
MDA-MB-231 breast = tested on: MDA-MB-231 breast
MDA-MB-435 melanoma = tested on: MDA-MB-435 melanoma
MDA-MB-468 breast = tested on: MDA-MB-468 breast
MOLT-4 leukemia = tested on: MOLT-4 leukemia
NCI-H226 lung = tested on: NCI-H226 lung
NCI-H23 lung = tested on: NCI-H23 lung
NCI-H322M lung = tested on: NCI-H322M lung
NCI-H460 NSCLC = tested on: NCI-H460 NSCLC
NCI-H522 lung = tested on: NCI-H522 lung
NCI/ADR-RES ovarian = tested on: NCI/ADR-RES ovarian
OVCAR-3 ovarian = tested on: OVCAR-3 ovarian
OVCAR-4 ovarian = tested on: OVCAR-4 ovarian
OVCAR-5 ovarian = tested on: OVCAR-5 ovarian
OVCAR-8 ovarian = tested on: OVCAR-8 ovarian
PC-3 prostate = tested on: PC-3 prostate
RPMI-8226 leukemia = tested on: RPMI-8226 leukemia
SF-268 CNS = tested on: SF-268 CNS
SF-295 CNS = tested on: SF-295 CNS
SF-539 CNS = tested on: SF-539 CNS
SK-MEL-28 melanoma = tested on: SK-MEL-28 melanoma
SK-MEL-5 melanoma = tested on: SK-MEL-5 melanoma
SK-OV-3 ovarian = tested on: SK-OV-3 ovarian
SN12C renal = tested on: SN12C renal
SNB-19 CNS = tested on: SNB-19 CNS
SR leukemia = tested on: SR leukemia
SW-620 colon = tested on: SW-620 colon
T-47D breast = tested on: T-47D breast
TK-10 renal = tested on: TK-10 renal
U251 glioblastoma = tested on: U251 glioblastoma
UACC-257 melanoma = tested on: UACC-257 melanoma
UACC-62 melanoma = tested on: UACC-62 melanoma
UO-31 renal = tested on: UO-31 renal

In the case of Cc1nc(Nc2ncc(C(=O)Nc3c(C)cccc3Cl)s2)cc(N2CCN(CCO)CC2)n1, the GI50 (786-0 renal) is reported as 35.7 nM, the TGI (786-0 renal) is reported as 2500 nM and the GI50 (A498 renal) is reported as 251 nM. It also gave a TGI (A498 renal) of 2750 nM, a GI50 (A549 NSCLC) of 27.5 nM and a TGI (A549 NSCLC) of 12600 nM. The GI50 (ACHN renal) was 17.2 nM, the TGI (ACHN renal) was 234 nM and the GI50 (BT-549 breast) was 32.7 nM. The TGI (BT-549 breast) was 1260 nM, the GI50 (CAKI-1 renal) was 27.7 nM and the TGI (CAKI-1 renal) was 225 nM. The GI50 (COLO 205 colon) was 3800 nM, the TGI (COLO 205 colon) was 10700 nM and the GI50 (DU-145 prostate) was 227 nM. The TGI (DU-145 prostate) was 4850 nM, the GI50 (EKVX NSCLC) was 724 nM and the TGI (EKVX NSCLC) was 15600 nM. The GI50 (HCC-2998 colon) was 5080 nM, the TGI (HCC-2998 colon) was 16800 nM and the GI50 (HCT-116 colon) was 4830 nM. The TGI (HCT-116 colon) was 17400 nM, the GI50 (HCT-15 colon) was 1030 nM and the TGI (HCT-15 colon) was 13700 nM. It also gave a GI50 (HL-60(TB) leukemia) of 7230 nM, a TGI (HL-60(TB) leukemia) of 18100 nM and a GI50 (HOP-62 NSCLC) of 64.8 nM. The TGI (HOP-62 NSCLC) was 12200 nM, the GI50 (HOP-92 NSCLC) was 37.2 nM and the TGI (HOP-92 NSCLC) was 2040 nM. For the same molecule, the GI50 (HS 578T breast) was 12.9 nM, the TGI (HS 578T breast) was 49.4 nM and the GI50 (HT29 colon) was 2020 nM. The TGI (HT29 colon) was 13300 nM, the TGI (IGROV1 ovarian) was 37.5 nM and the GI50 (KM12 colon) was 7300 nM. For the same molecule, the TGI (KM12 colon) was 19800 nM, the GI50 (LOX IMVI melanoma) was 27.7 nM and the TGI (LOX IMVI melanoma) was 1250 nM. The GI50 (M14 melanoma) was 2860 nM, the TGI (M14 melanoma) was 8230 nM and the GI50 (MALME-3M melanoma) was 3190 nM. The TGI (MALME-3M melanoma) was 8820 nM, the GI50 (MCF7 breast) was 10000 nM and the TGI (MCF7 breast) was 21700 nM. It also gave a GI50 (MDA-MB-231 breast) of 25.1 nM, a TGI (MDA-MB-231 breast) of 1040 nM and a GI50 (MDA-MB-435 melanoma) of 9250 nM. For the same molecule, the TGI (MDA-MB-435 melanoma) was 20800 nM, the GI50 (MDA-MB-468 breast) was 695 nM and the TGI (MDA-MB-468 breast) was 4510 nM. It also gave a GI50 (MOLT-4 leukemia) of 1000 nM, a TGI (MOLT-4 leukemia) of 3000 nM and a GI50 (NCI-H226 lung) of 24.7 nM. For the same molecule, the TGI (NCI-H226 lung) was 2640 nM, the GI50 (NCI-H23 lung) was 2590 nM and the TGI (NCI-H23 lung) was 10700 nM. It also gave a GI50 (NCI-H322M lung) of 38.1 nM, a TGI (NCI-H322M lung) of 973 nM and a GI50 (NCI-H460 NSCLC) of 9520 nM. The TGI (NCI-H460 NSCLC) was 21400 nM, the GI50 (NCI-H522 lung) was 13.5 nM and the TGI (NCI-H522 lung) was 98 nM. For the same molecule, the GI50 (NCI/ADR-RES ovarian) was 1870 nM, the TGI (NCI/ADR-RES ovarian) was 14700 nM and the GI50 (OVCAR-3 ovarian) was 15.1 nM. It also gave a TGI (OVCAR-3 ovarian) of 419 nM, a GI50 (OVCAR-4 ovarian) of 58.8 nM and a TGI (OVCAR-4 ovarian) of 850 nM. It also gave a GI50 (OVCAR-5 ovarian) of 41 nM, a TGI (OVCAR-5 ovarian) of 6270 nM and a GI50 (OVCAR-8 ovarian) of 64.3 nM. It also gave a TGI (OVCAR-8 ovarian) of 2970 nM, a GI50 (PC-3 prostate) of 3120 nM and a TGI (PC-3 prostate) of 17500 nM. It also gave a GI50 (RPMI-8226 leukemia) of 2110 nM, a TGI (RPMI-8226 leukemia) of 5500 nM and a GI50 (SF-268 CNS) of 30.3 nM. It also gave a TGI (SF-268 CNS) of 128 nM, a GI50 (SF-295 CNS) of 2590 nM and a TGI (SF-295 CNS) of 18900 nM. The GI50 (SF-539 CNS) was 48.2 nM, the TGI (SF-539 CNS) was 1640 nM and the GI50 (SK-MEL-28 melanoma) was 5620 nM. The TGI (SK-MEL-28 melanoma) was 18700 nM, the GI50 (SK-MEL-5 melanoma) was 4260 nM and the TGI (SK-MEL-5 melanoma) was 15100 nM. The GI50 (SK-OV-3 ovarian) was 49.6 nM, the TGI (SK-OV-3 ovarian) was 3140 nM and the GI50 (SN12C renal) was 13.9 nM. For the same molecule, the TGI (SN12C renal) was 3390 nM, the GI50 (SNB-19 CNS) was 8690 nM and the TGI (SNB-19 CNS) was 21700 nM. For the same molecule, the GI50 (SR leukemia) was 5440 nM, the TGI (SR leukemia) was 8780 nM and the GI50 (SW-620 colon) was 15100 nM. The TGI (SW-620 colon) was 28600 nM, the GI50 (T-47D breast) was 176 nM and the TGI (T-47D breast) was 15100 nM. For the same molecule, the GI50 (TK-10 renal) was 25.9 nM, the TGI (TK-10 renal) was 164 nM and the GI50 (U251 glioblastoma) was 4200 nM. It also gave a TGI (U251 glioblastoma) of 17800 nM, a GI50 (UACC-257 melanoma) of 5530 nM and a TGI (UACC-257 melanoma) of 18200 nM. For the same molecule, the GI50 (UACC-62 melanoma) was 2050 nM, the TGI (UACC-62 melanoma) was 10100 nM and the GI50 (UO-31 renal) was 57 nM. For the same molecule, the TGI (UO-31 renal) was 840 nM.

Source: PubChem BioAssay (NCI)
